Data from US20130137776A1, “METHOD FOR INHIBITING HISTONE GENE TRANSCRIPTION AND EXPRESSION” (CHINA MEDICAL UNIVERSITY, priority 2011, published 2013).

Assays:
[1] = test system: histone gene transcription of the HSC-3 cancer cell line; experiment: Microarray analysis of gene expression in hinokitiol-treated HSC-3 cells; format: cell-based; conditions: 6.25 μM or 12.5 μM hinokitiol, 24 hours, Affymetrix Human Gene 1.0 ST microarray
Protocol: (1) Cell Culture and RNA Collection
Human oral squamous-cell carcinoma (OSCC) cell lines, such as HSC-3 (JCRB0623, Japan), was cultured. The relative culture methods can be seen in Shieh, T. M. et al., Association of expression aberrances and genetic polymorphisms of lysyl oxidase with areca-associated oral tumorigenesis. Clin Cancer Res, 2007. 13(15 Pt 1): p. 4378-85; Chen, J. C. et al., Gypenosides induced G0/G1 arrest via CHk2 and apoptosis through endoplasmic reticulum stress and mitochondria-dependent pathways in human tongue cancer SCC-4 cells. Oral Oncol, 2009. 45(3): p. 273-83; and Lin, C. C. et al., Berberine induces apoptosis in human HSC-3 oral cancer cells via simultaneous activation of the death receptor-mediated and mitochondrial pathway. Anticancer Res, 2007. 27(5A): p. 3371-8, which are entirely incorporated hereinto by reference.
Then, the HSC-3 cell lines were divided into four groups: two groups of the cells were not treated by hinokitiol (0 μM); one group of the cells was treated by 6.25 μM hinokitiol (commercially purchased from Sigma-Aldrich company); and one group of the cells was treated by 12.5 μM hinokitiol. […] The content and purity of the obtained RNA were respectively determined at wavelengths of 260 nm and 280 nm by using a micro-volume spectrophotometer (Nanodrop ND-1000, commercially purchased from Labtech. International company). […]

[2] = test system: histone H2B and H3 gene expression in HSC-3 cell line; experiment: Reverse transcription-PCR of histone H2B and H3 gene expression; format: cell-based, human; conditions: 6.25 μM, 24 hours, GAPDH internal control
Protocol: HSC-3 cell lines were cultured and respectively treated by 0 μM and 6.25 μM hinokitiol for 24 hours. Then, the cells were scratched from the cell culture dishes and collected by centrifugation. Afterwards, reverse transcription-PCR (RT-PCR) was performed. The protocols and conditions related to RT-PCR can be seen in Shieh, T. M. et al., Association of expression aberrances and genetic polymorphisms of lysyl oxidase with areca-associated oral tumorigenesis. Clin Cancer Res, 2007. 13 (15 Pt1), p. 4378-85; and Shieh, T. M. et al., Association between the polymorphisms in exon 12 of hypoxia-inducible factor-1alpha and the clinicopathological features of oral squamous cell carcinoma. Oral Oncol, 2010. 46 (9), p. e47-53, which are entirely incorporated hereinto by reference.
The gene expression level of Glyceraldehyde-3-phosphate dehydrogenase (GAPDH) was used as an internal control. The variation of the gene expression level of histone H2B and H3 in HSC3 cell lines treated by hinokitiol was compared with the control group, and the results are shown in FIG. 2. At least two independent RT-PCR experiments were performed to validate the reproducibility of the analysis.

[3] = test system: histone H3 expression in HSC-3 cancer cell line; experiment: Western blotting analysis of histone H3, HSC-3 cancer cell line; format: cell-based, human; conditions: 6.25 μM and 12.5 μM, 24 hours, actin internal control
Protocol: (§1) Normal human oral keratinocyte cell lines (OK, obtained from China Medical University Hospital, Taiwan), HSC-3 cancer cell lines, and SAS cancer cell lines (OSCC cancer cell line, obtained from the tongue tissue of a patient in National Yang Ming University, Taiwan) were cultured (the protocols related to cell culture can be seen in Lu, S. Y. et al., Ripe areca nut extract induces G1 phase arrests and senescence-associated phenotypes in normal human oral keratinocyte. Carcinogenesis, 2006. 27 (6), p. 1273-84; and Shieh, T. M. et al., Association of expression aberrances and genetic polymorphisms of lysyl oxidase with areca-associated oral tumorigenesis. Clin Cancer Res, 2007. 13 (15 Pt 1), p. 4378-85, which are entirely incorporated hereinto by reference). The cells were respectively treated by 0 μM, 6.25 μM, and 12.5 μM hinokitiol for 24 hours, and scratched from the cell culture dishes and collected by centrifugation. Then, western blotting analysis was performed (see Lu, S. Y. et al., Ripe areca nut extract induces G1 phase arrests and senescence-associated phenotypes in normal human oral keratinocyte. Carcinogenesis, 2006. 27 (6), p. 1273-84, which is entirely incorporated hereinto by reference). […]

[4] = test system: histone H3 expression in SAS cancer cell line; experiment: Western blotting analysis of histone H3, SAS cancer cell line; format: cell-based, human; conditions: 6.25 μM and 12.5 μM, 24 hours, actin internal control
Protocol: as §1

[5] = test system: histone H3 expression in normal human oral keratinocyte cell line (OK); experiment: Western blotting analysis of histone H3, normal human oral keratinocyte cell line; format: cell-based; conditions: 6.25 μM and 12.5 μM, 24 hours, actin internal control
Protocol: as §1

HSC-3 cells = experiment: Cell cycle analysis by flow cytometry (PI staining); format: cell-based, human; conditions: 24 hours, 0 μM control 31.38%
Protocol: HSC-3 cells (2×10^5/4 ml) were respectively treated by 0 μM, 3.12 μM, and 6.25 μM hinokitiol for 24 hours, washed by an ice-cold PBS buffer solution twice, and fixed in 70% ice-cold ethanol at 4° C. for 4 hours. Then, the cells were stained by propidium iodide (PI), and a cell cycle analysis was performed by using a BD FACSAria flow cytometer (commercially purchased from Becton Dickinson, Germany). The obtained data was analyzed by MULTICycle Software (commercially purchased from Coulter company, U.S.A.).

[6] = compound of formula (I) and its salts; cited from Imai et al. 2006 and Ema et al. 2004 (rats); cited from earlier work

Q: Which results are given for CC(C)c1cccc(O)c(=O)c1 [hinokitiol]?
A: expression of histone genes (H1d, H3g, H3j, H3a, H3h, H2bm, H2bg, H3l, H2bf, H2a) vs untreated control [1]: decreased by above two-fold; gene expression level of histone H2B [2]: decreased; gene expression level of histone H3 [2]: decreased; expression level of histone H3 [3]: significantly decreased; expression level of histone H3 [4]: significantly decreased; expression level of histone H3 [5]: not affected; proportion of the cells in the synthesis phase (S phase) (HSC-3 cells; 3.125 μM hinokitiol): 41.19%; proportion of the cells in the synthesis phase (S phase) (HSC-3 cells; 6.25 μM hinokitiol): 43.89%; biological toxicity [6]: low biological toxicity
